According to patent US5093477A, “Rapidly cleavable substrate for HIV protease” (priority 1988, dated 1992):
Where a SMILES comes first, the peptide text is derived from it. [ ]: non-standard residue; d: D form. The star is where a group is joined. Sta = CC(C)C[C@H](N)[C@@H](O)CC(=O)O; Isovaleryl = CC(C)CC(=O)*

Assays:
Type in all cases: biochemical
[1] = target: T1, HIV protease (Human immunodeficiency virus type 1 group M subtype B, UniProt P04585); assay: HIV protease kinetics: cleavage of peptide substrates followed by HPLC (Tab. 1-4); conditions: substrate 4 mg/ml, HIV protease No. II (5 μl)
T1 construct: The enzyme is composed of only 99 amino acids and evidently eliminates itself from the pol gene
Protocol: e) Conditions for HPLC analysis:
(§1) Solvent system: 80% 0.1 M phosphoric acid pH 2.5. 20% (w/w) acetonitrile
(§2) Column: Merck ®LICHROSORB RP18 (5 μm) 250×4
(§3) Column temperature: 42° C.
(§4) Detector parameters: 215 nm, 0.08 AUF, 18.2° C.
(§5) Analysis time: 11 minutes
Retention time of the substrate: 8.1 minutes
Retention time of the N-terminal tetrapeptide: 3.9 minutes
Under the conditions chosen here, the heptapeptides are separated from the N-terminal tetrapeptide produced in the enzymatic cleavage. The % content of the tetrapeptide peak relative to the tetrapeptide+heptapeptide total corresponds to the proportion cleaved.
B) Procedure for HIV protease kinetics (Tab. 1-4)
10 μl of substrate solution (2-4 mg/ml) in MGTE15 buffer and 10 μl of MGTE15 buffer which contains 10% dimethyl sulfoxide are combined and incubated at 37° C. for 5-10 minutes. 5 μl of the HIV protease solution in MGTE25 buffer are added to this, and the mixture is shaken at 37° C. […] The microliter syringe is used to load the total amount onto the HPLC column. HPLC conditions as in A).

[2] = target: T1, HIV protease; assay: HIV protease kinetics: comparison of the cleavage rate of several substrates (Tab. 6); conditions: substrate 2 mg/ml, HIV protease No. II (1:4)
Protocol: C) Procedure for the HIV protease kinetics (Tab. 6) 10 μl of substrate solution (2 mg/ml) in MGTEl5 buffer and 10 μl of MGTE15 buffer are combined and incubated at 37° C. for 5-10 minutes. 5 μl of HIV protease No. II (diluted 1:4 with MGTE25 buffer) are added to this, and the mixture is shaken at 37° C. Subsequent procedure as in B).
Column: Merck HIBAR ®LICHROSORB RP8 (7 μm) 250×4
Flow rate: 1 ml min for SFNFPQI and SFNFOQI 0.5 ml/min for […] and VSQNYOIVQ. Otherwise as in Ae).

[3] = target: T1, HIV protease; assay: HIV protease inhibitor test with Ser-Phe-Asn-Phe-Opr-Gln-Ile as substrate; conditions: substrate Ser-Phe-Asn-Phe-Opr-Gln-Ile 2 mg/ml, HIV protease No. I (1:10), blank 33.62 %
Protocol: A) General procedure for testing inhibitors of HIV protease with Ser-Phe-Asn-Phe-Opr-Gln-Ile
2 mg of Ser-Phe-Asn-Phe-Opr-Gln-Ile are dissolved in 1 ml of MGTE15 buffer (possibly using ultrasound) and subsequently filtered through a sterile filter (0.45 μm).
2.5 times the desired molarity of the inhibitor per ml of solution are weighed in and dissolved in DMSO (10% of the final volume). The solution is diluted to the final volume with MGTE15 buffer and filtered through a sterile filter (0.45 μm).
5 μl of the HIV protease solution are diluted with MGTE25 buffer as required.
10 μl portions of the substrate solution are pipetted into test tubes (16×100) with screw caps. 10 μl of MGTE15 buffer which contains 10% DMSO are pipetted into the blank. 10 μl portions of the inhibitor solutions are added to the remaining test tubes. These samples are incubated at 37° C. for 5-10 minutes and then 5 μl of the protease solution are added to each. After reaction at 37° C. for 2 hours, 10 or 20 μl of each sample (depending on the sensitivity of the HPLC apparatus) are removed by pipette, placed in microvials and diluted with 120 μl of the HPLC solvent.
as §1, §2, §3, §4, §5
The % content of the tetrapeptide peak relative to the tetrapeptide+heptapeptide total corresponds to the proportion cleaved.

Molecule | % tetrapeptide = % cleavage ([2]; 5 min) | % tetrapeptide = % cleavage ([2]; 10 min) | % tetrapeptide = % cleavage ([2]; 20 min) | % tetrapeptide = % cleavage ([2]; 40 min) | % tetrapeptide = % cleavage ([2]; 80 min) | % tetrapeptide = % cleavage ([2]; 160 min) | % tetrapeptide = % cleavage ([2]; 320 min) | also measured
H-SFNFPQI-OH [SFNFPQI, H-Ser-Phe-Asn-Phe-Pro-Gln-Ile-OH] | 0.25% | 4.68% | 7.01% | 11.34% | 19.50% | 34.19% | 48.18% | % cleavage after 5 minutes' cleavage time (text summary of Tab. 1 and 2) ([1]; 5 minutes, both experiments): about 4%; % cleavage ([1]; Experiment A, 5 min): 4.00%; % cleavage ([1]; Experiment A, 10 min): 8.19%; % cleavage ([1]; Experiment A, 20 min): 14.57%; % cleavage ([1]; Experiment A, 40 min): 23.40%; % cleavage ([1]; Experiment A, 80 min): 39.43%; % cleavage ([1]; Experiment A, 160 min): 58.39%; % cleavage ([1]; Experiment A, 320 min): 70.16%; % cleavage ([1]; Experiment B, 5 min): 4.15%; % cleavage ([1]; Experiment B, 10 min): 7.54%; % cleavage ([1]; Experiment B, 20 min): 14.35%; % cleavage ([1]; Experiment B, 40 min): 23.00%; % cleavage ([1]; Experiment B, 80 min): 37.68%; % cleavage ([1]; Experiment B, 160 min): 57.11%; % cleavage ([1]; Experiment B, 320 min): 72.51%
H-VSQNYPIVQ-OH | 3.66% | 6.53% | 11.31% | 20.32% | 31.49% | 55.00% | 62.48% | –
H-Val-Ser-Gln-Asn-Tyr-Opr-Ile-Val-Gln-OH [VSQNYOIVQ] | 10.27% | 20.72% | 40.47% | 60.50% | 88.98% | 100.00% | 100.00% | –
CC(C)CC(=O)N[C@H](C(=O)N[C@H](C(=O)N[C@@H](CC(C)C)[C@@H](O)CC(=O)N[C@@H](C)C(=O)N[C@@H](CC(C)C)[C@@H](O)CC(=O)O)C(C)C)C(C)C [Pepstatin A] (Isovaleryl-VV[Sta]A[Sta]-OH) | – | – | – | – | – | – | – | Cleavage (%) ([3]; inhibitor 10^-4 M): 1.25%; Cleavage (%) ([3]; inhibitor 10^-5 M): 4.73%; Cleavage (%) ([3]; inhibitor 10^-6 M): 18.22%; Cleavage (%) ([3]; inhibitor 10^-7 M): 25.09%
